Reference: patent US12358949B2, “Defensin fragments for use in therapy or prophylaxis” (priority 2019, dated 2025)
Where two headings read alike, the source gives them in different places. Where a SMILES comes first, the peptide text is derived from it. Bridges are numbered along the chain shown (N, C = ends).

What was measured:
[1] = tested on: commensal bacteria; assay: Radial diffusion assay, HD-5 fragments; assay type: cell-based; conditions: 4 μg fragment, 2 μg full-length peptide; commensal bacteria (FIG. 3)
Experimental: In the RDA 2 μg of the full length and 4 μg of each fragment were used. An inhibition zone greater than 5 mm was determined as high activity, between 2.5 and 5 mm as low activity and 2.5 mm were the diameter of the punched well and therefore no activity.
(§1) Antimicrobial activity of all peptides was tested with a modified radial diffusion assay from Lehrer et al^12 Shortly described, log-phase bacteria grew (anaerobic bacteria with AnaeroGen, Oxoid in anaerobic jars) in liquid tryptic soy broth (TSB) (Becton Dickinson). After several wash steps in 10 mM sodium phosphate buffer pH 7.4, 4×10^6 cfu/ml was used per assay. To measure the antibacterial effect of the identified peptide fragments, the bacteria were incubated in 10 mM sodium phosphate (pH 7.4) containing 0.3 mg/ml TSB powder and 1% (w/v) low EEO-agarose (Applichem). Peptide fragments were then pipetted into punched wells and allowed to diffuse for 3 hours at 37° C. After that a nutrient rich gel with 6% TSB (w/v) and 1% agarose in 10 mM sodium phosphate buffer was poured on top of the first gel. After 24 hours the inhibition zones were measured. […] All experiments were carried out at least three times.

[2] = tested on: pathogenic bacteria; assay: Radial diffusion assay, HD-5 fragments; assay type: cell-based; conditions: pathogenic Gram-positive and Gram-negative bacteria (FIG. 4)
Experimental: A heat map system with high activity (inhibition zone in the RDA>5 mm), low activity (2.5 to 5 mm) and no activity (2.5 mm) was used.
as §1

[3] = tested on: E. coli MC1000; assay: Transmission electron microscopy of peptide treated bacteria; assay type: cell-based; conditions: 200 μg/ml, 2 hours
Experimental: Transmission electron microcscopy experiments were performed as previously described^11. 6×10^8 cfu E. coli MC1000 was incubated with 200 μg/ml of each peptide for 2 hours. Bacteria were fixed in Karnovsky's fixative, embedded in agarose, coagulated, cut in small blocks and fixed again in Karnovsky's solution. After post-fixation and embedding in glycid ether blocks were cut using an ultra-microtome. Sections (30 nm) were mounted on copper grids and analyzed using a Zeiss LIBRA 120 transmissions electron microscope.

[4] = Incubation of reduced peptide with human duodenal fluid, LC/MS; assay type: in vitro ADME; conditions: after reduction with 2 mM TCEP; duodenal fluid 30 minutes at 37° C.
Experimental: 2.5 μg of HD-5 or HD-6 were incubated in 50 mM NH4HCO3 buffer (pH 8.0) (Fluka) with 2 mM tris(2-carboxyethyl) phosphine for 15 minutes at 37° C. Afterwards human duodenal fluid was added and incubated for additional 30 minutes at 37° C. At last, formic acid and acetonitrile was added in a final concentration of 0.5% and 10%, respectively, and analyzed the samples by mass spectrometry. Mass spectrometry was performed as a LC/MS system using an Agilent 1200 series HPLC with an Agilent Advanced Bio Peptide Map (2.1×150 mm, 2.7 μm) column with a flow of 0.4 ml/min at 55° C. column temperature and a 6540 UHD Q-TOF LC/MS system (Agilent) for mass analysis. The samples were separated by a gradient of acetonitrile in 0.1% formic acid. The gradient started at 2% acetonitrile for 4 minutes and then increased during 35 minutes to 45%. Mass spectrometric analyses were performed in single MS mode from 100 to 3400 m/z with positive ion polarity and were analyzed by Agilent MassHunter Quantitative Analysis B 06.00 software.

[5] = tested on: A. baumannii 4-MRGN; assay type: cell-based
Experimental: (§2) The tested bacteria were incubated overnight in 1×TSB broth, centrifuged and washed with 10 mM sodium phosphate buffer containing 1% (w/v) TSB broth. 5×10^5 cfu/ml bacteria were mixed with different peptide concentrations in 10 mM sodium phosphate buffer with 1% (w/v) TSB (final volume 100 μl) and incubated for 2 hours at 37° C. Afterwards we added 100 μl 2×TSB broth and we measured the optical density at 600 nm (Spark 10M, Tecan, Austria). Bacterial growth was monitored for 12 hours, growing at 37° C. with shaking during the measurements each 30 minutes, except for Akkermansia muciniphila which were incubated at 37° C. in an anaerobic jar and growth was measured after 72 hours.

[6] = tested on: P. aeruginosa ATCC 27853; assay type: cell-based
Experimental: as §2

[7] = tested on: C. albicans 529L; assay type: cell-based
[8] = tested on: human erythrocytes; assay: Hemolytic assay; assay type: cell-based; conditions: compared to Melittin
Experimental: Hemolytic activity was measured after an existing protocol^13. We obtained blood from two voluntary donors (sample collection had been previously approved by the Ethical Committee of the University Hospital of Tübingen, Germany) and 1 ml blood was washed with PBS two times. Afterwards we centrifuged the blood at 1000 g and performed a 1% (v/v) blood suspension in PBS. The blood suspension was incubated with different peptide concentrations (final concentration 0.5%) for one hour at 37° C. Then the samples were centrifuged at 1000 g for 10 minutes and the supernatant was collected and measured at 414 nm. […] These experiments were carried out in duplicates.

[9] = tested on: CaCo2/TC7 cells
Experimental: CaCo2/TC7 (X, X) and HT29 MTX […] […] Experiments were carried out in duplicates.

[10] = tested on: P. aeruginosa PAO1; assay type: cell-based
Experimental: as §2

[11] = tested on: E. faecium 475747; assay type: cell-based
Experimental: as §2

[12] = tested on: K. pneumoniae 3-MRGN; assay type: cell-based
Experimental: as §2

[13] = tested on: A. baumannii DSM 30007; assay type: cell-based
Experimental: as §2

[14] = tested on: S. aureus ATCC 25923; assay type: cell-based
Experimental: as §2

[15] = tested on: E. faecium DSM 20477; assay type: cell-based
Experimental: as §2

[16] = tested on: P. aeruginosa XPAT2; assay type: cell-based
Experimental: as §2

[17] = tested on: P. aeruginosa XPAT1; assay type: cell-based
Experimental: as §2

[18] = tested on: E. coli JM83; assay type: cell-based
Experimental: as §2

[19] = tested on: Y. enterocolitica; assay type: cell-based
Experimental: as §2

[20] = tested on: K. pneumoniae DSM 30104; assay type: cell-based
Experimental: as §2

[21] = tested on: S. aureus USA300; assay type: cell-based
Experimental: as §2

[22] = tested on: P. aeruginosa 4-MRGN; assay type: cell-based
Experimental: as §2

[23] = tested on: HT29 MTX E29 cells
Experimental: CaCo2/TC7 (X, X) and HT29 MTX [MUT] (X, X) were seed in a 96 well plate in 90 μl media (1500 cells/well) and incubated at 37° C. for 24 hours. Afterwards peptide treatment with different concentrations started (volume of 10 μl solved in 0.01% acetic acid) and cells were incubated for 96 hours. Untreated and 1% Triton-X treated cells were used as controls. After the incubation we added 100 μl of CellTiter Glo2.0 solution and started our measurement protocol. The measurement was carried out in a Spark 10M (Tecan), starting with 12 minutes continuously shaking followed by the luminescence measurement with an integration time from 1 second per well. Experiments were carried out in duplicates.

[24] = tested on: E. faecalis ATCC 19433; assay: Turbidity assay, MIC by optical density after 18 h; assay type: cell-based

For `CC[C@H](C)[C@@H]1NC(=O)[C@H](CCC(=O)O)NC(=O)[C@@H]2CSSC[C@@H]3NC(=O)[C@H](Cc4ccc(O)cc4)NC(=O)[C@@H](NC(=O)[C@@H](NC(=O)[C@H](C)N)[C@@H](C)O)CSSC[C@@H](C(=O)N[C@@H](CCCNC(=N)N)C(=O)O)NC(=O)[C@H](CSSC[C@H](NC(=O)[C@H](CCCNC(=N)N)NC(=O)CNC(=O)[C@H]([C@@H](C)O)NC(=O)[C@H](CCCNC(=N)N)NC3=O)C(=O)N[C@@H](C)C(=O)N[C@@H]([C@@H](C)O)C(=O)N[C@@H](CCCNC(=N)N)C(=O)N[C@@H](CCC(=O)O)C(=O)N[C@@H](CO)C(=O)N[C@@H](CC(C)C)C(=O)N[C@@H](CO)C(=O)NCC(=O)N[C@@H](C(C)C)C(=O)N2)NC(=O)[C@H](CC(C)C)NC(=O)[C@H](CCCNC(=N)N)NC(=O)[C@H](Cc2ccc(O)cc2)NC(=O)[C@H](CC(C)C)NC(=O)[C@H](CCCNC(=N)N)NC(=O)CNC(=O)[C@H](CO)NC1=O` [HD-5, reference compound] (H-ATCYCRTGRCATRESLSGVCEISGRLYRLCCR-OH; disulfide 3-31, 5-20, 10-30 (inferred); N-terminus and C-terminus assumed), the “antimicrobial activity in radial diffusion assay” value [1] was “broad antimicrobial activity”, the “antimicrobial activity in radial diffusion assay” value [2] was “strong effect on the growth of every tested bacterium” and the “phenotype of peptide treated bacteria (TEM)” value [3] was “detached inner membrane and small vesicular structures around the bacteria cell envelope”. For the same molecule, the “susceptibility to proteolytic digestion” value [4] was “digested by intestinal proteases”, the MIC ([5]; 4-MRGN, 12 h) was 6.25 µM and the MIC ([5]; A. baumannii 4-MRGN, after 12 hours, listed as fl) was 22.4 µg/mL. It also gave an MIC ([6]; ATCC 27853, 12 h) of 25 µM and an MIC ([6]; P. aeruginosa ATCC 27853, after 12 hours, listed as fl) of 89.7 µg/mL.

In the case of `CC[C@H](C)[C@H](NC(=O)[C@H](CCC(=O)O)NC(=O)[C@H](CS)NC(=O)[C@@H](NC(=O)CNC(=O)[C@H](CO)NC(=O)[C@H](CC(C)C)NC(=O)[C@H](CO)NC(=O)[C@H](CCC(=O)O)NC(=O)[C@H](CCCNC(=N)N)NC(=O)[C@@H](NC(=O)[C@H](C)NC(=O)[C@H](CS)NC(=O)[C@H](CCCNC(=N)N)NC(=O)CNC(=O)[C@@H](NC(=O)[C@H](CCCNC(=N)N)NC(=O)[C@H](CS)NC(=O)[C@H](Cc1ccc(O)cc1)NC(=O)[C@H](CS)NC(=O)[C@@H](NC(=O)[C@H](C)N)[C@@H](C)O)[C@@H](C)O)[C@@H](C)O)C(C)C)C(=O)N[C@@H](CO)C(=O)NCC(=O)N[C@@H](CCCNC(=N)N)C(=O)N[C@@H](CC(C)C)C(=O)N[C@@H](Cc1ccc(O)cc1)C(=O)N[C@@H](CCCNC(=N)N)C(=O)O` [HD-51-28] (H-ATCYCRTGRCATRESLSGVCEISGRLYR-OH; N-terminus and C-terminus assumed), the “antimicrobial activity in radial diffusion assay” value [1] is reported as “exhibited antimicrobial properties, albeit to a lesser extent than HD-51-9”, the “antimicrobial activity in radial diffusion assay” value [2] is reported as “only minimally active or more selective in terms of different strains” and the “phenotype of peptide treated bacteria (TEM)” value [3] is reported as “bigger aggregation inside the bacteria”.

For `CC(C)C[C@H](NC(=O)[C@H](CCCNC(=N)N)NC(=O)[C@H](CS)NC(=O)[C@H](CO)NC(=O)[C@H](CS)NC(=O)[C@@H](N)C(C)C)C(=O)N[C@H](C(=O)N[C@@H](Cc1ccccc1)C(=O)N[C@@H](CS)C(=O)N[C@@H](CCCNC(=N)N)C(=O)N[C@@H](CCCNC(=N)N)C(=O)O)C(C)C` [HNP-41-11] (H-VCSCRLVFCRR-OH; N-terminus and C-terminus assumed), the MIC ([7]; 529L, 24 h) was 100 µM, the MIC ([7]; C. albicans 529L, after 24 hours (Table 5)) was 134.2 µg/mL and the “hemolytic activity, in words” value [8] was “low hemolytic activity”. For the same molecule, the cytotoxic effects [9] was “minor cytotoxic effects”, the MIC ([10]; P. aeruginosa PAO1, after 12 hours) was 16.8 µg/mL and the MIC ([10]; PAO1, 12 h) was 12.5 µM. For the same molecule, the MIC ([11]; 475747, 12 h) was 3.125 µM, the MIC ([11]; E. faecium 475747, after 12 hours) was 4.2 µg/mL and the MIC ([12]; 3-MRGN, 12 h) was 25 µM. It also gave an MIC ([12]; K. pneumoniae 3-MRGN, after 12 hours) of 33.5 µg/mL, an MIC ([13]; A. baumannii DSM30007, after 12 hours) of 8.4 µg/mL and an MIC ([13]; DSM 30007, 12 h) of 6.25 µM. It also gave an MIC ([14]; ATCC 25923, 12 h) of 12.5 µM, an MIC ([14]; S. aureus ATCC25923, after 12 hours) of 16.8 µg/mL and an MIC ([15]; DSM 20477, 12 h) of 12.5 µM. It also gave an MIC ([15]; E. faecium DSM20477, after 12 hours) of 16.8 µg/mL, an MIC ([16]; P. aeruginosa XPAT2, after 12 hours) of 16.8 µg/mL and an MIC ([16]; XPAT2, 12 h) of 12.5 µM. For the same molecule, the MIC ([17]; P. aeruginosa XPAT1, after 12 hours) was 16.8 µg/mL, the MIC ([17]; XPAT1, 12 h) was 12.5 µM and the MIC ([18]; E. coli JM83, after 12 hours) was 8.4 µg/mL. The MIC ([18]; JM83, 12 h) was 6.25 µM, the MIC ([19]; 12 h) was 12.5 µM and the MIC ([19]; Y. enterocolitica, after 12 hours) was 16.8 µg/mL. The MIC ([5]; 4-MRGN, 12 h) was 25 µM, the MIC ([5]; A. baumannii 4-MRGN, after 12 hours) was 33.5 µg/mL and the MIC ([6]; ATCC 27853, 12 h) was 12.5 µM. It also gave an MIC ([6]; P. aeruginosa ATCC 27853, after 12 hours) of 16.8 µg/mL, an MIC ([20]; DSM 30104, 12 h) of 25 µM and an MIC ([20]; K. pneumoniae DSM30104, after 12 hours) of 33.5 µg/mL. It also gave an MIC ([21]; S. aureus USA300, after 12 hours) of 67.1 µg/mL, an MIC ([21]; USA300, 12 h) of 50 µM and an MIC ([22]; 4-MRGN, 12 h) of 50 µM. The MIC ([22]; P. aeruginosa 4-MRGN, after 12 hours) was 67.1 µg/mL and the “cytotoxic effects compared to CaCo2/TC7” value [23] was “more susceptible”.

For AFTCHCRRSCYSTEYSYGTCTVMGINHRFCCL [HD-6], the “susceptibility to proteolytic digestion” value [4] was “protected against proteolytic digestion”.

In the case of “CTRATYCRG [random amino acid structure of HD51-9]”, the “antimicrobial activity, in words” value [24] is reported as “complete dissolving of bactericidal effects”.
